Experimental data: patent US20110237538A1, “TREATMENT OF LYSOSOMAL STORAGE DISORDERS AND OTHER PROTEOSTATIC DISEASES” (SUMMIT CORPORATION PLC, priority 2008, published 2011)

Legend:
Format in all cases: biochemical
[1] = target: T1, wild type (wt) beta-glucocerebrosidase (Homo sapiens, UniProt P04062); experiment: beta-glucocerebrosidase activity assay in HL60 lysate (4MU-β-D-glc); conditions: at a concentration of 100 μM, 0.5 mM 4MU-β-D-glc;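 also: fluorometric read-out of 4MU liberated from the substrate (ex 360 nm, em 450 nm) after 37 °C incubation, reaction stopped with sodium carbonate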
T1 construct: The lysates were used as a source for wild type (wt) beta-glucocerebrosidase; endogenous in cells; host or cells: HL60 (ECACC No. 98070106) lysate
T1 sequence (P04062 40-536): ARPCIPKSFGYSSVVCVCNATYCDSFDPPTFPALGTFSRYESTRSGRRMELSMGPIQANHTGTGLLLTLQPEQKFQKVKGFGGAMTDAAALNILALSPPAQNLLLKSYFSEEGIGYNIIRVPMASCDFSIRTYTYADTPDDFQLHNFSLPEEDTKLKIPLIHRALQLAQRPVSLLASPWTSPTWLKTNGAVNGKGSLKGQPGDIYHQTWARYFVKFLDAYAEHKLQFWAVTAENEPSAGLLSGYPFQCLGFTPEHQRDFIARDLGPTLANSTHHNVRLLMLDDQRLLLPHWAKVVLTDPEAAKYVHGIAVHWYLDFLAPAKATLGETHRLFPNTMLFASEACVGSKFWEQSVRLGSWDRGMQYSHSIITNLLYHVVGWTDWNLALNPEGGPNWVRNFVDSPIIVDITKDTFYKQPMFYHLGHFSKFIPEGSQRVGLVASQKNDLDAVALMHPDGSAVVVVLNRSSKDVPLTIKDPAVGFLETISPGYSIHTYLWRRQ

[2] = target: T2, wild type (wt) lysosomal alpha-glucosidase (Homo sapiens, UniProt P10253); experiment: alpha-glucosidase activity assay in HL60 lysate (4MU-α-D-glc); conditions: at a concentration of 100 uM, 0.5 mM 4MU-α-D-glc, pH 4.5;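 also: fluorometric rate of 4MU product release read at 360 nm excitation and 450 nm emission, reactions run at 37 °C in citric phosphate buffer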
T2 construct: The lysates were used as a source for wild type (wt) lysosomal alpha-glucosidase; endogenous in cells; host or cells: HL60 (ECACC No. 98070106) lysate

[3] = target: T3, wild type (wt) alpha-galactosidase (Homo sapiens, UniProt P06280); experiment: alpha-galactosidase activity assay in HL60 lysate (4MU-α-D-gal); conditions: at a concentration of 100 uM, 0.5 mM 4MU-α-D-gal, pH 4.5
T3 construct: The lysates were used as a source for wild type (wt) alpha-galactosidase; endogenous in cells; host or cells: HL60 (ECACC No. 98070106) lysate
T3 sequence (P06280 32-429): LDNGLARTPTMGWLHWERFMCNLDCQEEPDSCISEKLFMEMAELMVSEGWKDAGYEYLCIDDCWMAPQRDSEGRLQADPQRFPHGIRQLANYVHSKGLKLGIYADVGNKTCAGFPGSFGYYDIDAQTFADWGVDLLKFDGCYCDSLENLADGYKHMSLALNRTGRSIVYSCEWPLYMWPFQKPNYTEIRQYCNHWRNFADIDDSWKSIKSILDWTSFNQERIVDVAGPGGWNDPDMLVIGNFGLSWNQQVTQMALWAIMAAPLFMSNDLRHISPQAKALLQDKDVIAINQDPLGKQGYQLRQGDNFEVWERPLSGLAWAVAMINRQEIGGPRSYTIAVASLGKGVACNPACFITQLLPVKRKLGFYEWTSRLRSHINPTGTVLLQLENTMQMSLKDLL

[4] = test system: α-D-glucosidase (Bacillus sterothermophilus); experiment: glycosidase assay with p-nitrophenyl substrates (Example 2); conditions: 10 μl of 5 mM iminosugar solution in 70 μl incubation mixture; 20° C.
Method: The assays were conducted as described by Watson et al. 1997, Phytochemistry 46: 255-259 using p-nitrophenyl-substrates. Assays were carried out in microtitre plates. Enzymes were assayed in 0.1M citric acid/0.2M di-sodium hydrogen phosphate (Mcllvaine) buffers at the optimum pH for the enzyme. All assays were carried out at 20° C. All enzymes and substrates were purchased from Sigma Aldrich Chemicals Limited. The incubation mixture consisted of 10 μl of enzyme solution, 10 μl of the iminosugars solution (made up in deionised water at 5 mM) and 50 μl of the appropriate 5 mM p-nitrophenyl substrate made up in McIlvaine buffer at the optimum pH for the enzyme. The reactions were stopped with 0.4M glycine (pH 10.4) during the exponential phase of the reaction, which was determined at the beginning of the assay using blanks with water, which were incubated for a range of time periods to measure the reaction rate using 5 mM substrate solution. Absorbances were read at 405 nm. Water was substituted for the inhibitors in the blanks.
The glycosidases used were α-D-glucosidase (yeast), α-D-glucosidase (Bacillus sterothermophilus), α-D-glucosidase (rice), amyloglucosidase (Aspergillus niger), β-D-glucosidase (almond), α-D-galactosidase (green coffee beans), β-D-galactosidase (bovine liver), α-L-fucosidase (bovine kidney), α-D-mannosidase (Jack bean), β-D-mannosidase (Cellullomonas fimi), Naringinase (Penicillium decumbens), N-acetyl-β-D-glucosaminidase (Bovine kidney), N-acetyl-β-D-glucosaminidase (Aspergillus oryzae) and N-acetyl-β-D-glucosaminidase (Jack bean)

Work on `CN1C[C@H](O)[C@@H](O)[C@H](O)[C@H]1CO` [Compound 3, (2R,3R,4R,5S)-2-(hydroxymethyl)-1-methylpiperidine-3,4,5-triol] yielded an inhibition at 100 µM [1] of over 50% and an inhibition at 100 µM [2] of over 50%.
For `O[C@H]1[C@H](O)[C@@H](O)CN2CC[C@H](O)[C@H]12` [Compound 104, (1S,6S,7R,8R,8aR)-octahydroindolizine-1,6,7,8-tetraol], the inhibition at 100 µM [1] was over 50% and the inhibition at 100 µM [2] was over 50%.
For `O=C1N[C@H](CO)[C@@H](O)[C@H](O)[C@@H]1O` [Compound 112, (3S,4S,5R,6R)-3,4,5-trihydroxy-6-(hydroxymethyl)piperidin-2-one], the inhibition at 100 µM [3] was over 50%.
With `OC[C@@H]1NC[C@H](O)[C@H]1O` [Compound 160, (2S,3S,4S)-2-(hydroxymethyl)pyrrolidine-3,4-diol] the inhibition at 100 µM [1] was over 50% and the inhibition at 100 µM [2] was over 50%.
`OCCN1[C@H](CO)[C@H](O)[C@H](O)[C@H]1CO` [Compound 168, (2R,3R,4S,5R)-1-(2-hydroxyethyl)-2,5-bis(hydroxymethyl)pyrrolidine-3,4-diol] showed an inhibition at 100 µM [3] of over 50%.
Compound `OC[C@H]1N[C@H](CO)[C@H](O)C(O)[C@H]1O` (stereo partly drawn) [Compound 189, (2R,3S,5S,6R)-2,6-bis(hydroxymethyl)piperidine-3,4,5-triol] has an inhibition at 100 µM [3] of over 50%.
In the case of `CCCCOC(=O)[C@@H]1[C@@H](O)[C@H](O)[C@@H](O)CN1CCCC` [Compound 205, (2S,3R,4R,5S)-butyl 1-butyl-3,4,5-trihydroxypiperidine-2-carboxylate], the “Promotion of glycosidase activity: α-D-glucosidase (Bacillus sterothermophilus)” value (shortened to “Promotion of glycosidase activity”) [4] is reported as 60 % increase in absorbance compared to the water controls.
In the case of `OC[C@H]1NC[C@H](O)[C@@H](O)[C@H]1O` [Compound 215, (2R,3S,4R,5S)-2-(hydroxymethyl)piperidine-3,4,5-triol], the inhibition at 100 µM [3] is reported as over 50%.
`CNC(=O)[C@H]1N[C@H](CO)[C@@H](O)[C@H](O)[C@@H]1O` [Compound 246, (2S,3R,4S,5R,6R)-3,4,5-trihydroxy-6-(hydroxymethyl)-N-methylpiperidine-2-carboxamide] showed an inhibition at 100 µM [3] of over 50%.
With `CN1C[C@@H](O)[C@H](O)[C@@H](O)C1` [Compound 253, (3R,4r,5S)-1-methylpiperidine-3,4,5-triol] the “Promotion of glycosidase activity” value [4] was 56 % increase in absorbance compared to the water controls.
In the case of `C[C@H]1NC[C@H](O)[C@@H](O)[C@H]1O` [Compound 258, (2R,3S,4R,5S)-2-methylpiperidine-3,4,5-triol], the inhibition at 100 µM [3] is reported as over 50%.
`C[C@H]1N[C@H](CO)[C@H](O)[C@H](O)[C@H]1O` [Compound 263, (2R,3S,4R,5S,6R)-2-(hydroxymethyl)-6-methylpiperidine-3,4,5-triol] showed an inhibition at 100 µM [3] of over 50%.
With `C[C@H]1N[C@@H](CO)[C@H](O)[C@H](O)[C@H]1O` [Compound 264, (2S,3S,4R,5S,6R)-2-(hydroxymethyl)-6-methylpiperidine-3,4,5-triol] the inhibition at 100 µM [3] was over 50%.
With `C[C@@H]1N[C@@H](CO)[C@H](O)[C@H](O)[C@H]1O` [Compound 269, (2S,3S,4R,5S,6S)-2-(hydroxymethyl)-6-methylpiperidine-3,4,5-triol] the inhibition at 100 µM [3] was over 50%.
`OC[C@@H]1[C@@H](O)[C@H](O)[C@@H](O)CN1CCCOc1ccccc1` [Compound 288, (2R,3R,4R,5S)-2-(hydroxymethyl)-1-(3-phenoxypropyl)piperidine-3,4,5-triol] gave an inhibition at 100 µM [1] of over 50% and an inhibition at 100 µM [2] of over 50%.
`OC[C@@H]1[C@@H](O)[C@H](O)[C@@H](CO)N1CCCOc1ccccc1` [Compound 343, (2R,3R,4R,5R)-2,5-bis(hydroxymethyl)-1-(3-phenoxypropyl)pyrrolidine-3,4-diol] gave an inhibition at 100 µM [1] of over 50% and an inhibition at 100 µM [2] of over 50%.
For `N[C@@H]1CN[C@H](CO)C1` [Compound 344, ((2S,4S)-4-aminopyrrolidin-2-yl)methanol], the “Promotion of glycosidase activity” value [4] was 71 % increase in absorbance compared to the water controls.
`CC(=O)N[C@H]1C[C@@H](CO)N(CCO)C1` [Compound 347, N-((3S,5S)-1-(2-hydroxyethyl)-5-(hydroxymethyl)pyrrolidin-3-yl)acetamide] was tested, and the “Promotion of glycosidase activity” value [4] was 68 % increase in absorbance compared to the water controls.
In the case of `C=CCC[C@H]1N[C@@H](CO)[C@H](O)[C@@H](O)[C@@H]1O` [Compound 380, (2R,3R,4S,5S,6S)-2-(but-3-enyl)-6-(hydroxymethyl)piperidine-3,4,5-triol], the inhibition at 100 µM [3] is reported as over 50%.
With `OC[C@H]1NC[C@@H](O)[C@H](O)[C@H]1O` [Compound 447, (2R,3S,4S,5R)-2-(hydroxymethyl)piperidine-3,4,5-triol] the inhibition at 100 µM [3] was over 50%.
`OC[C@@H]1[C@@H](O)[C@H](O)[C@@H](O)CN1Cc1ccc(-c2ccccc2)cc1` [Compound 524, (2R,3R,4R,5S)-1-(biphenyl-4-ylmethyl)-2-(hydroxymethyl)piperidine-3,4,5-triol] was tested, and the inhibition at 100 µM [1] was over 50% and the inhibition at 100 µM [2] was over 50%.
For `OC[C@@H]1[C@@H](O)[C@H](O)[C@@H](CO)N1CCOCc1ccccc1` [Compound 556, (2R,3R,4R,5R)-1-(2-(benzyloxy)ethyl)-2,5-bis(hydroxymethyl)pyrrolidine-3,4-diol], the inhibition at 100 µM [1] was over 50% and the inhibition at 100 µM [2] was over 50%.
Compound `OCCN1C[C@@H](CO)[C@H](O)[C@@H](O)C1` [Compound 640, (3S,4S,5S)-1-(2-hydroxyethyl)-5-(hydroxymethyl)piperidine-3,4-diol] has an inhibition at 100 µM [1] of over 50%.
`OC[C@@H]1CNC[C@H](O)[C@H]1O` [Compound 641, (3S,4S,5S)-5-(hydroxymethyl)piperidine-3,4-diol] gave an inhibition at 100 µM [1] of over 50%.
In the case of `O=C(NC[C@@H]1[C@@H](O)[C@@H](O)CN1Cc1ccc(-c2ccccc2)cc1)c1ccccc1` [Compound 649, N-(((2R,3R,4S)-1-(biphenyl-4-ylmethyl)-3,4-dihydroxypyrrolidin-2-yl)methyl)benzamide], the inhibition at 100 µM [1] is reported as over 50%.
In the case of `NC[C@H]1[C@@H](O)[C@@H](O)CN1Cc1ccc(-c2ccccc2)cc1` [Compound 686, (2S,3R,4S)-2-(aminomethyl)-1-(biphenyl-4-ylmethyl)pyrrolidine-3,4-diol], the inhibition at 100 µM [1] is reported as over 50%.
`O=C(NC[C@H]1[C@@H](O)[C@@H](O)CN1Cc1ccc(-c2ccccc2)cc1)c1ccc(-c2ccccc2)cc1` [Compound 701, N-(((2S,3R,4S)-1-(biphenyl-4-ylmethyl)-3,4-dihydroxypyrrolidin-2-yl)methyl)biphenyl-4-carboxamide] was tested, and the inhibition at 100 µM [1] was over 50%.
Compound `OCCCCCCCCCN1C[C@H](O)[C@@H](O)[C@H](O)[C@H]1CO` [Compound 724, (2R,3R,4R,5S)-2-(hydroxymethyl)-1-(9-hydroxynonyl)piperidine-3,4,5-triol] has an inhibition at 100 µM [1] of over 50% and an inhibition at 100 µM [2] of over 50%.
`CCCCCCCCCN1C[C@@H](O)[C@H](O)[C@H](O)[C@@H](O)C1` [Compound 736, (3R,4S,5R,6S)-1-nonylazepane-3,4,5,6-tetraol] showed an inhibition at 100 µM [1] of over 50%.
In the case of `O[C@H]1[C@H](O)[C@H](O)CN(CCCCCOCC23CC4CC(CC(C4)C2)C3)C[C@H]1O` [Compound 766, (3R,4R,5R,6R)-1-(5-(adamantan-1-yl-methoxy)-pentyl)azepane-3,4,5,6-tetraol], the inhibition at 100 µM [1] is reported as over 50%.
